Usually IC50 stands for the concentration at which inhibition is half-maximal.

The target in this assay is T1, human FSH receptor (Homo sapiens, UniProt P23945).
T1 construct: expressed in transfected cells; host or cells: CHO cells (hFSHR clone 16)
T1 sequence (P23945 18-695): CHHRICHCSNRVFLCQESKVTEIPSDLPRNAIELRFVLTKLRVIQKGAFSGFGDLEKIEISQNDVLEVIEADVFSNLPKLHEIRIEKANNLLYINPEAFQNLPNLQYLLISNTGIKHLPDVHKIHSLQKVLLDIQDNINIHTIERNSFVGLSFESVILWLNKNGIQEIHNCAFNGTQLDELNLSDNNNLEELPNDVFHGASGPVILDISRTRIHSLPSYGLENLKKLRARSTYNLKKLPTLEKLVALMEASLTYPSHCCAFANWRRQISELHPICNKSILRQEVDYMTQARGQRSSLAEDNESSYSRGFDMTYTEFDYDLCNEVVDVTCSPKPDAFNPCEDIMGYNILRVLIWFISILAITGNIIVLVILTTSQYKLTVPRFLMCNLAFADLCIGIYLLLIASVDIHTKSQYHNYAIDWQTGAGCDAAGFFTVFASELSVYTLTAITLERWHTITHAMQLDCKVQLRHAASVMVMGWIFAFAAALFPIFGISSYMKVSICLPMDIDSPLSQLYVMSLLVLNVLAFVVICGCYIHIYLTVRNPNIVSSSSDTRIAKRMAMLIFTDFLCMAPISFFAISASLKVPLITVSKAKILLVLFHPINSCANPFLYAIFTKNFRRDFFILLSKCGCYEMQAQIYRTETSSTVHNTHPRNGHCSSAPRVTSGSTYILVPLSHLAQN
Description: HTRF assay for measuring cAMP in cells (FSH antagonism). It counts as cell-based. To be noted: hFSHR clone 16 cells (CHO cells stably transfected with the human FSH receptor); in the presence of 1e-9 mol/l hFSH; 37° C. for 2 h; read-out: IC50, FSH antagonistic effect in the HTRF assay. The method, then: HTRF Assay for Measuring cAMP in Cells
The method is based on a competitive immunoassay between native cAMP, which has been produced by the cells, and cAMP which is labelled with cAMPD2 conjugate. The tracer binding was visualized by a monoclonal antibody, anti-cAMP labelled with cryptate [HTRF=homogeneous time-resolved fluorescence].
The specific signal is inversely proportional to the cAMP concentration of the samples employed.
The 665 nm/620 nm fluorescence ratio was evaluated.
The following material was used: 96-well plates for the tissue culture, 96-well plates with black edge and black base (e.g. Fluotrac 600 from Greiner), 96-well plates for the substance dilutions of polypropylene and cAMP Femtomolar (4000wells Kit, CIS Bio International # 62AM5PEJ).
The following reagents were used: BSA (bovine serum albumin) Fraction V protease-free, IBMX (3-isobutyl-1-methylxanthine), hFSH (human follicle stimulating hormone), Triton X-100 analytical grade, potassium fluoride analytical grade, G 418 (Geneticin) and Accutase.
Buffer 1 (washing and testing buffer) contained PBS, 1 mM CaCl2, 1 mM MgCl2, 0.2% glucose; 0.1% BSA, 1 mM IBMX.
Buffer 2 (2× lysis buffer) contained 1% Triton X-100 in PBS (without CaCl2 and MgCl2).
Buffer 3 (assay buffer) contained 50 mM potassium phosphate buffer (pH 7.0); 800 mM potassium fluoride; 0.2% BSA (always added fresh).
On day 1, the cells were seeded in 96-well plates (3×10^4 cells per well hFSHR clone 16 cells (CHO cells stably transfected with the human FSH receptor in 150 μl of medium). The next day, test substance dilutions were made up. For this purpose, all the substances were diluted in ice-cold buffer 1 (with or without hFSH), and the substance dilutions were placed on ice until applied to the cells.
The cell supernatant was then aspirated off, and the cells were washed 2× with 200 μl of buffer 1. The cells were treated with 60 μl of the appropriate substance concentrations at 37° C. for 2 h. The cells were then lysed with 60 μl of buffer 2 (put onto the supernatant) (on a plate shaker at RT for 30 min).
The test conjugates (cAMP-D2 and anti-cAMP cryptate, CIS Bio) were diluted in buffer 3 in accordance with the manufacturers' information. The actual mixture for measurement was pipetted into a black 96-well plate (in each case 15 μl of the cell lysate diluted with 35 μl of buffer 1; firstly 25 μl of cAMP-D2 conjugate were pipetted and, after 10 min, 25 μl of the anti-cAMP cryptate were added). This is followed by incubation at RT for 90 minutes. The measurement was carried out in a PheraStar (BMG).
Tissue Culture Conditions
Dose-effect curve (hFSH) for the human receptor: 1e-8, 3e-9, 1e-9, 3e-10, 1e-10, 3e-11, 1e-11, 3e-12 mol/l.
The test substances were employed in suitable dilutions in the absence (test for agonism) and in the presence of 1e-9 mol/l hFSH.
The values of the well ratio were averaged and then entered directly in SigmaPlot versus the concentrations. The maximum and minimum values were determined for each plate, and half the difference is to be regarded as IC50.
(In TR-FRET formats the signal depends on donor and acceptor labels being close together.)
With `CNC(=O)c1ccc(C#Cc2ccc(OC(C)C)c(C(=O)NC(CC#N)Cc3c[nH]c4ccccc34)c2)cc1` (stereo not shown) [Example 9, N-[2-Cyano-1-(1H-indol-3-ylmethyl)-ethyl]-2-isopropoxy-5-(4-methylcarbamoyl-phenylethynyl)-benzamide], the IC50 came to 750 nM.

Take `CC(C)Oc1ccc(-c2ccc(C(=O)N3CCOCC3)c(Cl)c2)cc1C(=O)NC(CC#N)Cc1c[nH]c2ccccc12` (stereo not shown) [Example 6, 3′-Chloro-4-isopropoxy-4′-(morpholine-4-carbonyl)-biphenyl-3-carboxylic acid [2-cyano-1-(1H-indol-3-ylmethyl)-ethyl]-amide]: the IC50 amounted to 80 nM.

As to `CNC(=O)c1cc(F)cc(-c2ccc(OC(C)C)c(C(=O)NC(CC#N)Cc3c[nH]c4ccccc34)c2)c1` (stereo not shown) [Example 1, 5′-Fluoro-4-isopropoxy-biphenyl-3,3′-dicarboxylic acid 3-{[2-cyano-1-(1H-indol-3-ylmethyl)-ethyl]-amide}3′-methylamide], the IC50 is 3500 nM.

Consider `CNC(=O)c1cccc(C#Cc2ccc(OC(C)C)c(C(=O)NC(CC#N)Cc3c[nH]c4ccccc34)c2)c1` (stereo not shown) [Example 10, N-[2-Cyano-1-(1H-indol-3-ylmethyl)-ethyl]-2-isopropoxy-5-(3-methylcarbamoyl-phenylethynyl)-benzamide], for which the IC50 was found to be 3500 nM.

As to `CNC(=O)c1ccccc1C#Cc1ccc(OC(C)C)c(C(=O)NC(CC#N)Cc2c[nH]c3ccccc23)c1` (stereo not shown) [Example 11, N-[2-Cyano-1-(1H-indol-3-ylmethyl)-ethyl]-2-isopropoxy-5-(2-methylcarbamoyl-phenylethynyl)-benzamide], the IC50 was 10000 nM.

Consider `Cc1cc(C(N)=O)ccc1C#Cc1ccc(OC(F)(F)F)c(C(=O)NC(CC#N)Cc2c[nH]c3ccccc23)c1` (stereo not shown) [Example 4, 5-(4-Carbamoyl-2-methylphenylethynyl)-N-[2-cyano-1-(1H-indol-3-ylmethyl)-ethyl]-2-trifluoromethoxy-benzamide], for which the IC50 was 250 nM.

On to `CC(C)Oc1ccc(C#Cc2ccc(C(N)=O)cc2)cc1C(=O)NC(CC#N)Cc1c[nH]c2ccccc12` (stereo not shown) [Example 8, 5-(4-Carbamoyl-phenylethynyl)-N-[2-cyano-1-(1H-indol-3-ylmethyl)-ethyl]-2-isopropoxy-benzamide], for which the IC50 amounted to 200 nM.

The values are drawn from patent US20090069321A1, “CYANOMETHYL SUBSTITUTED N-ACYL TRYPTAMINES” (priority 2007, published 2009).
